Test results: US10570129B2 (Zoetis Services LLC, priority 2015, dated 2020)

How the values were obtained:
[1] = test system: Haemonchus contortus L3; test: microbe, parasite or virus in culture; assay type: cell-based; conditions: Haemonchus contortus, 96 h, read-out: HcL3 Minimal Effective Concentration (MEC)
[2] = test system: D. immitis microfilariae; test: Dirofilaria immitis, microfilariae (DiMF) in vitro motility assay; assay type: cell-based; conditions: Dirofilaria immitis, 72 h, read-out: DiMF minimally effective dose (MEC)

SMILES | minimal effective concentration [1] | minimal effective concentration [2]
O=C(NCc1ccnc(Cl)c1)n1c2c(c3ccc(OC(F)(F)F)cc31)CN(C/C=C/c1ccc(Cl)c(F)c1)CC2 [Example 336, (E)-2-(3-(4-chloro-3-fluorophenyl)allyl)-N-((2-chloropyridin-4-yl)methyl)-7-(trifluoromethoxy)-1,2,3,4-tetrahydro-5H-pyrido[4,3-b]indole-5-carboxamide] | 1 µM | 33 µM
O=C(NCc1ccnc(Cl)c1)n1c2c(c3c4ccccc4ccc31)CN(C/C=C/c1ccc(Cl)cc1)CC2 [Example 436, (E)-10-(3-(4-chlorophenyl)allyl)-N-((2-chloropyridin-4-yl)methyl)-8,9,10,11-tetrahydro-7H-benzo[e]pyrido[4,3-b]indole-7-carboxamide] | > 100 µM | 18.2 µM
N#Cc1cc2c(cc1F)c1c(n2C(=O)NCc2ccnc(Cl)c2)CCN(C/C=C/c2ccc(Cl)c(F)c2)C1 [Example 172, (E)-2-(3-(4-chloro-3-fluorophenyl)allyl)-N-((2-chloropyridin-4-yl)methyl)-7-cyano-8-fluoro-1,2,3,4-tetrahydro-5H-pyrido[4,3-b]indole-5-carboxamide] | 10 µM | > 100 µM
NC(=O)c1ccc2c3c(n(C(=O)NCc4ccnc(Cl)c4)c2c1)CCN(C/C=C/c1ccc(Cl)c(F)c1)C3 [Example 465, (E)-2-(3-(4-chloro-3-fluorophenyl)allyl)-N^5-((2-chloropyridin-4-yl)methyl)-1,2,3,4-tetrahydro-5H-pyrido[4,3-b]indole-5,7-dicarboxamide] | 3.3 µM | 10 µM
Cc1cc2c(cc1Br)c1c(n2C(=O)NCc2ccnc(Cl)c2)CCN(C/C=C/c2ccc(Cl)cc2)C1 [Example 194, (E)-8-bromo-2-(3-(4-chlorophenyl)allyl)-N-((2-chloropyridin-4-yl)methyl)-7-methyl-1,2,3,4-tetrahydro-5H-pyrido[4,3-b]indole-5-carboxamide] | 0.4 µM | 5.7 µM
Cc1ccc2c(c1)c1c(n2C(=O)NCc2ccnc(Cl)c2)CCN(C/C=C/c2ccc(OC(F)(F)F)cc2)C1 [Example 434, (E)-N-((2-chloropyridin-4-yl)methyl)-8-methyl-2-(3-(4-(trifluoromethoxy)-phenyl)allyl)-1,2,3,4-tetrahydro-5H-pyrido[4,3-b]indole-5-carboxamide] | 3.3 µM | 5.7 µM
N#Cc1ccc2c(c1)c1c(n2C(=O)NCc2ccnc(Cl)c2)CCN(C/C=C/c2ccc(Cl)c(F)c2F)C1 [Example 82, (E)-2-(3-(4-chloro-2,3-difluorophenyl)allyl)-N-((2-chloropyridin-4-yl)methyl)-8-cyano-1,2,3,4-tetrahydro-5H-pyrido[4,3-b]indole-5-carboxamide] | 0.2 µM | > 100 µM
N#Cc1ccc(/C=C/CN2CCc3c(c4cc(Br)ccc4n3C(=O)NCc3ccnc(Cl)c3)C2)cc1F [Example 180, (E)-8-bromo-N-((2-chloropyridin-4-yl)methyl)-2-(3-(4-cyano-3-fluorophenyl)allyl)-1,2,3,4-tetrahydro-5H-pyrido[4,3-b]indole-5-carboxamide] | 0.5 µM | > 100 µM
O=C(NCc1ccnc(Cl)c1)n1c2c(c3ccc(OC(F)(F)F)cc31)CN(C/C=C/c1ccc(C(F)(F)F)cc1)CC2 [Example 362, (E)-N-((2-chloropyridin-4-yl)methyl)-7-(trifluoromethoxy)-2-(3-(4-(trifluoro-methyl)phenyl)allyl)-1,2,3,4-tetrahydro-5H-pyrido[4,3-b]indole-5-carboxamide] | > 100 µM | 31.5 µM
O=C(NCc1ccnc(F)c1)n1c2c(c3cc(Cl)ccc31)CN(C/C=C/c1ccc(Cl)c(F)c1)CC2 [Example 254, (E)-8-chloro-2-(3-(4-chloro-3-fluorophenyl)allyl)-N-((2-fluoropyridin-4-yl)methyl)-1,2,3,4-tetrahydro-5H-pyrido[4,3-b]indole-5-carboxamide] | 3.3 µM | 100 µM
N#Cc1ccc(/C=C/CN2CCc3c(c4cc(F)c(C#N)cc4n3C(=O)NCc3ccnc(Cl)c3)C2)cc1 [Example 173, (E)-N-((2-chloropyridin-4-yl)methyl)-7-cyano-2-(3-(4-cyanophenyl)allyl)-8-fluoro-1,2,3,4-tetrahydro-5H-pyrido[4,3-b]indole-5-carboxamide] | 18.2 µM | > 100 µM
O=C(NCc1ccnc(Cl)c1)n1c2c(c3cc(F)ccc31)CN(C/C=C/c1ccc(Cl)c(Cl)c1)CC2 [Example 167, (E)-N-((2-chloropyridin-4-yl)methyl)-2-(3-(3,4-dichlorophenyl)allyl)-8-fluoro-1,2,3,4-tetrahydro-5H-pyrido[4,3-b]indole-5-carboxamide] | 0.3 µM | 33 µM
O=C(NCc1ccnc(F)c1)n1c2c(c3c(OC(F)(F)F)cccc31)CN(C/C=C/c1ccc(Cl)cc1)CC2 [Example 379a, (E)-2-(3-(4-chlorophenyl)allyl)-N-((2-fluoropyridin-4-yl)methyl)-9-(trifluoromethoxy)-1,2,3,4-tetrahydro-5H-pyrido[4,3-b]indole-5-carboxamide] | > 100 µM | 3.3 µM
N#Cc1ccc2c(c1)c1c(n2C(=O)NCc2ccnc(F)c2)CCN(C/C=C/c2ccc(Cl)cc2F)C1 [Example 104, (E)-2-(3-(4-chloro-2-fluorophenyl)allyl)-8-cyano-N-((2-fluoropyridin-4-yl)methyl)-1,2,3,4-tetrahydro-5H-pyrido[4,3-b]indole-5-carboxamide] | 0.1 µM | 3.2 µM
O=C(NCc1ccnc(Cl)c1)n1c2c(c3cc(F)c(Cl)cc31)CN(C/C=C/c1cc(F)c(F)c(F)c1)CC2 [Example 301, (E)-7-chloro-N-((2-chloropyridin-4-yl)methyl)-8-fluoro-2-(3-(3,4,5-trifluorophenyl)allyl)-1,2,3,4-tetrahydro-5H-pyrido[4,3-b]indole-5-carboxamide] | 0.2 µM | 18.2 µM
N#Cc1ccc2c(c1)c1c(n2C(=O)NCc2ccnc(F)c2)CCN(C/C=C/c2ccc(F)cc2Cl)C1 [Example 114, (E)-2-(3-(2-chloro-4-fluorophenyl)allyl)-8-cyano-N-((2-fluoropyridin-4-yl)methyl)-1,2,3,4-tetrahydro-5H-pyrido[4,3-b]indole-5-carboxamide] | 0.1 µM | 10 µM
N#Cc1ccc(/C=C/CN2CCc3c(c4c(C(F)(F)F)cc(F)cc4n3C(=O)NCc3ccnc(Cl)c3)C2)cc1 [Example 320, (E)-N-((2-chloropyridin-4-yl)methyl)-2-(3-(4-cyanophenyl)allyl)-7-fluoro-9-(trifluoromethyl)-1,2,3,4-tetrahydro-5H-pyrido[4,3-b]indole-5-carboxamide] | 3.3 µM | 18.2 µM
CS(=O)(=O)c1ccc(/C=C/CN2CCc3c(c4cc(C#N)ccc4n3C(=O)NCc3ccnc(F)c3)C2)cc1 [Example 100, (E)-8-cyano-N-((2-fluoropyridin-4-yl)methyl)-2-(3-(4-(methylsulfonyl)-phenyl)allyl)-1,2,3,4-tetrahydro-5H-pyrido[4,3-b]indole-5-carboxamide] | > 100 µM | > 100 µM
O=C(NCc1ccnc(Cl)c1)n1c2c(c3ccc(Cl)cc31)CN(C/C=C/c1ccc(Cl)c(F)c1)CC2 [Example 205, (E)-7-chloro-2-(3-(4-chloro-3-fluorophenyl)allyl)-N-((2-chloropyridin-4-yl)methyl)-1,2,3,4-tetrahydro-5H-pyrido[4,3-b]indole-5-carboxamide] | 1 µM | 18.2 µM
N#Cc1ccc2c(c1)c1c(n2C(=O)NCc2ccnc(Cl)c2)CCN(C/C=C/c2c(F)cc(F)cc2F)C1 [Example 76, (E)-N-((2-chloropyridin-4-yl)methyl)-8-cyano-2-(3-(2,4,6-trifluorophenyl)allyl)-1,2,3,4-tetrahydro-5H-pyrido[4,3-b]indole-5-carboxamide] | 0.1 µM | > 100 µM
N#Cc1ccc2c(c1)c1c(n2C(=O)NCc2ccnc(O)c2)CCN(C/C=C/c2cc(F)c(Cl)c(F)c2)C1 [Example 450, (E)-2-(3-(4-chloro-3,5-difluorophenyl)allyl)-8-cyano-N-((2-hydroxypyridin-4-yl)methyl)-1,2,3,4-tetrahydro-5H-pyrido[4,3-b]indole-5-carboxamide] | 0.5 µM | 100 µM
N#Cc1ccc(/C=C/CN2CCc3c(c4ccc(C#N)cc4n3C(=O)NCc3ccnc(Cl)c3)C2)cc1 [Example 33, (E)-N-((2-chloropyridin-4-yl)methyl)-7-cyano-2-(3-(4-cyanophenyl)allyl)-1,2,3,4-tetrahydro-5H-pyrido[4,3-b]indole-5-carboxamide] | 3.3 µM | > 100 µM
O=C(NCc1ccnc(F)c1)n1c2c(c3c(Cl)c(Cl)ccc31)CN(C/C=C/c1ccc(Cl)cc1)CC2 [Example 293, (E)-8,9-dichloro-2-(3-(4-chlorophenyl)allyl)-N-((2-fluoropyridin-4-yl)methyl)-1,2,3,4-tetrahydro-5H-pyrido[4,3-b]indole-5-carboxamide] | 3.3 µM | 5.7 µM
O=C(NCc1ccnc(Cl)c1)n1c2c(c3cc(OC(F)(F)F)ccc31)CN(C/C=C/c1ccc(Cl)c(Cl)c1)CC2 [Example 392, (E)-N-((2-chloropyridin-4-yl)methyl)-2-(3-(3,4-dichlorophenyl)allyl)-8-(trifluoromethoxy)-1,2,3,4-tetrahydro-5H-pyrido[4,3-b]indole-5-carboxamide] | 1 µM | 22.2 µM
